Like-named read-outs stand apart in the source and are kept apart here.
Tests used:
[1] = tested on: Ba/F3 lines expressing the noted EGFR constructs; assay: Ba/F3 proliferation inhibition (CellTiterGlo, 72 hr assay); assay type: cell-based
[2] = tested on: NCI-H3255 (L858R); assay: L858R human tumour xenograft, tumour growth inhibition; settings: 5-15 mg/kg BID; L858R human tumour xenografts in mice
Description: (§1) A PC-9 derivative with an ex19del/C797S in cis double mutation was engineered by CRISPR knock-in.

[3] = Caco-2 in vitro permeability (efflux ratio); assay type: in vitro ADME; settings: human, read-out: CAco-2 ER
[4] = target: T1, MDR1 (Homo sapiens, UniProt P08183); assay: MDCK-MDR1 efflux; assay type: in vitro ADME; settings: dog, read-out: MDCK-MDR1 ER
T1 construct: expressed in transfected cells; host or cells: MDCK
T1 sequence (P08183 whole entry): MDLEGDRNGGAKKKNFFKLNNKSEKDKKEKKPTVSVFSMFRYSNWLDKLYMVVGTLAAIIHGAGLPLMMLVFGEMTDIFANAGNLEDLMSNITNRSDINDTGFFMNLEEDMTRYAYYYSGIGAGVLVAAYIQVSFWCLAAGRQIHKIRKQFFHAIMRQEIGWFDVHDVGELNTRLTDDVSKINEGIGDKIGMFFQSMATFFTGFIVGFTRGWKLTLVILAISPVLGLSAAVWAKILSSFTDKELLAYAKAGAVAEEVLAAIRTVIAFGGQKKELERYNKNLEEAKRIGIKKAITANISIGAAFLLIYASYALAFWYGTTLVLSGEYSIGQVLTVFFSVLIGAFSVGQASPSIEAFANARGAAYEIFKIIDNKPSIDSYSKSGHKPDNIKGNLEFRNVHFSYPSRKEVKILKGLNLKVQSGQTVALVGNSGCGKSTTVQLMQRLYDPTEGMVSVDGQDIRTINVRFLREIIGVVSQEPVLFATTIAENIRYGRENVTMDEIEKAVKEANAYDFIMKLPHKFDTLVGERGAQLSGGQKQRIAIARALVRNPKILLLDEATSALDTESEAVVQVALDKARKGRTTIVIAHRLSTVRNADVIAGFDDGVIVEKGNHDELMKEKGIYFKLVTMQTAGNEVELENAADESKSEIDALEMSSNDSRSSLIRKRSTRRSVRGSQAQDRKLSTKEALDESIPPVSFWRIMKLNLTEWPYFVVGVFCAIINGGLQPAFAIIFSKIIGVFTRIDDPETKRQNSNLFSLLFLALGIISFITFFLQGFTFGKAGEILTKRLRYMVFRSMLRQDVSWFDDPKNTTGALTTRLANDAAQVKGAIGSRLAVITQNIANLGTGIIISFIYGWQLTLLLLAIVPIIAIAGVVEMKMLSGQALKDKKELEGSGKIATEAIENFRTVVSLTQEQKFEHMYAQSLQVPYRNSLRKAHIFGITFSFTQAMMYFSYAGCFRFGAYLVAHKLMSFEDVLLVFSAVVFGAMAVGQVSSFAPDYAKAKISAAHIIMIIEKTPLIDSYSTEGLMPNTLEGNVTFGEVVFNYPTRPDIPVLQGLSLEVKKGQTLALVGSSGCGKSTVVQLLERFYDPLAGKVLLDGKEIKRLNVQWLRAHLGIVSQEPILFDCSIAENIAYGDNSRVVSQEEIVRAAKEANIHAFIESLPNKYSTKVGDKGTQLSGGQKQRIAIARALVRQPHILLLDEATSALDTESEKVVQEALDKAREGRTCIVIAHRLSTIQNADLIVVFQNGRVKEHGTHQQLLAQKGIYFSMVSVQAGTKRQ

[5] = tested on: pEGFR (phosphorylated EGFR, Tyr1068); assay: pEGFR (Tyr1068) inhibition, AlphaLISA; settings: compared with gefitinib
Description: as §1

[6] = Free CNS penetration (Kp,uu), rat brain slice method; assay type: in vivo, mice and rats; settings: oral dosing; rat brain slice method for free fraction in brain; osimertinib run in parallel as benchmark
Protocol: In order to characterise compound A in vitro and in vivo potency and selectivity for C797S-active double-mutant inhibitor vs. EGFR wild type, compound A was assessed in vitro and in vivo across a variety of engineered or endogenously occurring single (ex19del or L858R) or double (ex19del/C797S or L858R/C797S) mutant systems. In addition, the CNS exposure of compound A was also characterised using a gold-standard rat brain slice method to assess free exposure in brain tissue.
Compound A is an EGFR inhibitor of formula I(a). Compound A was tested across a panel of in vitro biochemical, cell signalling, and proliferation assays for potency against EGFR L858R and ex19del single mutants and/or the corresponding C797S double mutants. Additionally, compound A was tested for in vivo activity in mice bearing human NSCLC cell line xenografts NCI-H3255 (L858R) and PC-9 (ex19del), and in a PC-9-derived ex19del/C797S double mutant knock-in xenograft. Free CNS penetration (Kp,uu) was determined in nontumour bearing mice and rats. Osimertinib and/or gefitinib were used as benchmark molecules across assays.

[7] = tested on: PC-9 (ex19del); assay: ex19del human tumour xenograft, tumour growth inhibition
Description: as §1

[8] = assay type: in vivo
[9] = tested on: human NSCLC cell lines; assay: Human cancer cell line proliferation inhibition (CellTiterGlo); assay type: cell-based
[10] = tested on: PC-9 derivative with an ex19del/C797S in cis double mutation; assay: C797S double mutant knock-in xenograft, tumour growth inhibition; settings: 15 mg/kg BID, PC-9 ex19del/C797S xenograft
Description: as §1

[11] = tested on: pEGFR; assay: PC-9 (ex19del) PK/PD study, pEGFR pharmacodynamic readout; assay type: in vivo; settings: 15 mg/kg single dose, over a 12-hour BID dosing window
[12] = target: T2, BCRP (Homo sapiens, UniProt Q9UNQ0); assay: MDCK-BCRP efflux; assay type: in vitro ADME; settings: dog, read-out: MDCK-BCRP ER
T2 construct: expressed in transfected cells; host or cells: MDCK
T2 sequence (Q9UNQ0 1-655): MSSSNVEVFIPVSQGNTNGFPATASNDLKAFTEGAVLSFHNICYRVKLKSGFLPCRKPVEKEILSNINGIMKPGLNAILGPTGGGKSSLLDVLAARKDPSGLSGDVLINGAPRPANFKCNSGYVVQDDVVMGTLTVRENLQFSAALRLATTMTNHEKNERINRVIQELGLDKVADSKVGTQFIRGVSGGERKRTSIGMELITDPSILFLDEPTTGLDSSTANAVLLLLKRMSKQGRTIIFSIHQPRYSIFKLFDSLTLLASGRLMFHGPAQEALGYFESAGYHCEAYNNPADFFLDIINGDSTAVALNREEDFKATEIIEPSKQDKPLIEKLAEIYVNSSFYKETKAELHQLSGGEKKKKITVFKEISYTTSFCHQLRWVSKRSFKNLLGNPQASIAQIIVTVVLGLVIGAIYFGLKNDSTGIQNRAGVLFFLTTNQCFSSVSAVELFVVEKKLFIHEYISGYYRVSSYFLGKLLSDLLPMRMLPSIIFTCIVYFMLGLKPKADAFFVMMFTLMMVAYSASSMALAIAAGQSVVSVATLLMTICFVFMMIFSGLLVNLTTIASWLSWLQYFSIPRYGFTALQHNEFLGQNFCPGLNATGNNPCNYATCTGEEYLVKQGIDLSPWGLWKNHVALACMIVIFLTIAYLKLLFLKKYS

COCC[C@H]1CNC(=O)c2c1[nH]c(-c1ccnc(C)n1)c2Nc1cccc(Cl)c1OC [Compound A]
inhibition of L858R, ex19del, L858R/C797S and ex19del/C797S mutants in proliferation assays ([1]; engineered Ba/F3): high picomolar to low nanomolar
selectivity for all tested mutants relative to wild-type EGFR ([1]; engineered Ba/F3 cells): > 150 x
tumour growth inhibition (TGI) [2]: ≥ 90%
efflux ratio at 1 µM [3]: 1.76
efflux ratio at 1 µM [4]: 0.95
selectivity for all tested EGFR mutant cell lines relative to EGFR wild-type cell line NCI-H2073 (pEGFR inhibition IC50) [5]: exceeded that of gefitinib
brain exposure Kp,uu [6]: comparable to Osimertinib
tumour growth inhibition (TGI) ([7]; 5-15 mg/kg BID, ex19del human tumour xenografts in mice): ≥ 90%
antitumour activity in EGFR single mutant xenografts ([7]; EGFR single mutant xenografts (ex19del or L858R), 15 mg/kg BID or 50 mg/kg QD in mice): regression
tolerability ([8]; 15 mg/kg BID or 50 mg/kg QD in mice): well tolerated
tolerability ([8]; 5-15 mg/kg BID, mice): well tolerated
inhibition of L858R, ex19del, L858R/C797S and ex19del/C797S mutants in proliferation assays ([9]; human NSCLC cell lines): high picomolar to low nanomolar
selectivity for all tested mutants relative to wild-type EGFR ([9]; human cancer cells): > 150 x
in vivo tumour growth inhibition in the presence of C797S [10]: retained in vivo tumour growth inhibition
in vivo tumour growth inhibition in the presence of C797S ([10]; listed as compound A): no drop-off in antitumour activity
inhibition at 15 mg/kg [11]: > 50%
efflux ratio at 1 µM [12]: 1.17

Reference: patent EP4534085A1, “COMPOUNDS FOR USE IN METHODS OF TREATING CANCER” (Scorpion Therapeutics, Inc., priority 2023, dated 2025)
